Measurements: patent US10228358B2, “Apparatus and method for the assessment of concentration profiling and permeability rates” (Pion Inc., priority 2015, dated 2019)
Values after ≈ are worked out from the molar mass of the structure shown.

How the values were obtained:
[1] = In vitro dissolution-permeation of aripiprazole forms on μFLUX; format: in vitro ADME
Experimental: In the case of buccal drug delivery, the donor chamber represented the oral cavity, the artificial membrane the oral mucosa, while the acceptor chamber represented the blood circulation. At first […] of n-dodecane was dribbled on the membrane surface, then 20 mL of pH 6.8 phosphate buffer was added into the donor chamber, and 20 mL of sink buffer was added into the acceptor chamber. […] Samples equivalent to 20 mg of ARP were placed in the donor chamber. Both chambers were stirred at 200 rpm at room temperature, using stirring devices 87 and 89. The temperature was controlled via elements 91. In both chambers the API concentration was followed by UV-spectrophotometry at 252 nm. Suitable probes for the spectroscopic measurements (not shown in FIG. 12) were introduced through openings 93 and 95.
The flux across the membrane was calculated using the following equation:
[formula] where the flux (J) of a drug through the membrane is defined as the amount (n) of drug crossing a unit area (A) perpendicular to its flow per unit time (t).
The API concentration profiles in the donor and acceptor vessels (1000 mg/L max concentration, 0.025 mol/dm^3 KH2PO4 buffer in the donor compartment, n-dodecane membrane, sink buffer as acceptor, 150 rpm, 25° C.) are presented, respectively, in FIGS. 13A and 13B.

[2] = physchem; details: aqueous buffer
Experimental: In the case of buccal drug delivery, the donor chamber represented the oral cavity, the artificial membrane the oral mucosa, while the acceptor chamber represented the blood circulation. At first 75 mL of n-dodecane was dribbled on the membrane surface, then 20 mL of pH 6.8 phosphate buffer was added into the donor chamber, and 20 mL of sink buffer was added into the acceptor chamber. […] Both chambers were stirred at 200 rpm at room temperature, using stirring devices 87 and 89. The temperature was controlled via elements 91. In both chambers the API concentration was followed by UV-spectrophotometry at 252 nm. Suitable probes for the spectroscopic measurements (not shown in FIG. 12) were introduced through openings 93 and 95.
The in vitro dissolution-absorption studies were carried out using a μFLUX™ (Pion Inc., Billerica Mass., U.S.A.), a schematic diagram of which is shown in FIG. 12. The apparatus included a donor and an acceptor chamber (20 mL volume) separated by an artificial membrane (PVDF, polyvinylidenefluoride, 0.45 μm, 1.54 cm^2). In the case of oral drug delivery, the donor chamber represents the gastrointestinal tract, while the acceptor chamber represents the blood circulation. […]

[3] = Permeability in concentric nested donor/receiver arrangement with PAMPA membrane; format: in vitro ADME; details: in situ UV fiber optic, read-out: Peff (effective permeability coefficient)
Experimental: A concentric nested arrangement was used to study permeability of several compounds. The membrane was a PAMPA membrane and experiments were performed with and without Acceptor Sink Buffer™ on the acceptor sink side. Concentrations measurements were taken using in situ UV fiber optic system Pion Spectra™.

| Structure (SMILES) | API dissolved during the biorelevant time ([1]; 30-60 min, donor chamber) [%] | flux during the first 25 min ([1]; n-dodecane membrane, sink buffer acceptor) [μg/h×cm^2] | solubility [2] [µg/mL] | Papp [3] [×10⁻⁶ cm/s] |
| --- | --- | --- | --- | --- |
| O=C1CCc2ccc(OCCCCN3CCN(c4cccc(Cl)c4Cl)CC3)cc2N1 [ARP, aripiprazole] | 1.5 | 16 | 30 (≈ 66.9 µM) |  |
| CC(=O)Oc1ccccc1C(=O)O [Aspirin] |  |  |  | 331 |
| Cn1c(=O)c2c(ncn2C)n(C)c1=O [Caffeine] |  |  |  | 257 |
